Data set [1] concerns the target T1, Leukotriene D4 receptor (Cavia porcellus, UniProt Q2NNR5).
T1 construct: As a receptor sample, a lung cell membrane fraction from guinea pigs was used; from tissue; host or cells: lung membrane fraction of Hartley male guinea pigs
T1 sequence (Q2NNR5 1-340): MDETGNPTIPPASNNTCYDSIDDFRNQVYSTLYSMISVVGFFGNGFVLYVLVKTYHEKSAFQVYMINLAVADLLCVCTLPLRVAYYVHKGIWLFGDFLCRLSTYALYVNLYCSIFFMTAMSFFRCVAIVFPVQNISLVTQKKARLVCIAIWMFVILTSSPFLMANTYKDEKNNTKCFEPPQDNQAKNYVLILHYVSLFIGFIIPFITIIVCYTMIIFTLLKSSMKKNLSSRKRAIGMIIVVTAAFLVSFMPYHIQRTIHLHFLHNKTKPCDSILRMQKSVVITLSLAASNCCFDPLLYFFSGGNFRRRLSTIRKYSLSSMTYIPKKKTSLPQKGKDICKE
Put plainly: Leukotriene D4 receptor binding test. The settings on record: binding inhibition constant (Ki) vs [3H] LTD4 0.2 nM, lung cell membrane fraction from guinea pigs, 25° C. for 30 minutes; for Ki: read-out: pKi value (converted). The protocol:
Leukotriene D4 Receptor Binding Test
As a receptor sample, a lung cell membrane fraction from guinea pigs was used. Preparation of the membrane fraction was carried out according to the method of Ahn et al. (Eur. J. Pharmacol., 127, 153-155 (1986)). Lungs of Hartley male guinea pigs (400 to 500 g body weight, Nippon SLC Co.) were extracted, and perfused with a physiological saline, and then, adding 10 mM of PIPES, 10 mM of MgCl2 and 10 mM of CaCl2 buffer (pH 7.5) to the lung tissue and the mixture was homogenized. This homogenate was centrifuged at 70,000 xg for 10 minutes to obtain a membrane fraction.
Leukotriene D4 (LTD4) recepter binding test was carried out according to the method of Aharony, et al. (J. Pharmacol. Expl.Ther., 243, 921-926 (1987)). To 0.42 mg of the receptor sample were added 10 mM of PIPES, 10 mM of MgCl2 and 10 mM of CaCl2 buffer (pH 7.5) to make the total amount of 480 μl, and 10 μl of [^3H] LTD4 (NEN Life Science Products Co.) and 10 μl of a Test compound in dimethylsulfoxide were added to the mixture, and the resulting mixture was incubated at 25° C. for 30 minutes. The mixtures thus incubated were filtered through a glass fiber filter (Whatman Co., GF/C) using cell harvester (Brandel Co., M-30R). The filter were washed with 10 mM of Tris. and 100 mM of NaCl buffer (pH 7.5), and 5 ml of a liquid scintillator (NACALAI TESQUE INC., clearsol I), and radioactivity was measured by a liquid scintillation analyzer (Packard Co., 2000CA). When a dissociation constant (Kd) of LTD4 was to be obtained, [^3H] LTD4 with 0.03 to 0.5 nM was used, and 1 μM of non-radioactive LTD4 was added. When a binding inhibition constant (Ki) of the Test compound is to be meaured, [^3H] LTD4 with 0.2 nM was used. Kd and Ki are calculated according to the method of Bennett et al. (Neurotransmitter Receptor Binding, 2nd ed., edited by H. I. Yamamura et al., pp. 61-89, Raven Press (1985)).

Data set [2] deals with Leukotriene D4 induced respiratory constriction. Put plainly: Leukotriene D4 induced respiratory constriction test. Type of data set: in vivo. As to conditions: p.o. 1 hr before i.v. LTD4; anesthetized Hartley male guinea pigs; respiratory inner pressure. The protocol:
Leukotriene D4 Induced Respiratory Constriction Test
Respiratory constriction was measured by modifying the method of Konzett and Rossler (Arch. Exp. Pathol. Pharmakol., 195, pp. 71-74 (1940)). Hartley male guinea pigs (400 to 500 g body weight, Nippon SLC Co.) were anesthetized with pentobarbital (50 mg/kg, s.c.), and a cannula was inserted into the trachea to carry out artificial ventilation with an artificial ventilator (manufactured by Harvard Co., Model 683). An inner pressure of the respiratory tract was measured by a differential pressure transducer (Nihon Koden, TP-603T) connected to the respiratory cannula and it is used as an index of respiratory constriction.
LTD4 (0.03, 0.06, 0.13, 0.25, 0.5, 1 and 2 μg/kg, Sigma Co.) was intravenously administered from a cannula inserted into the right jugular vein from a low dose with an interval of 5 minutes to cause a respiratory constriction reaction and an increased amount of a respiratory inner pressure was measured. Test compound was suspended in 0.5% sodium carboxymethyl cellulose aqueous solution, and orally administered 1 hour before administration of LTD4. Animals were fasted for 24 hours before administration of the Test compound.
A2=(Dose of Compound administered)/{(ED50 of group to which Compound was added)/(ED50 of control group)−1}

This is an account of results in patent US20030216571A1, “Tricyclic compounds” (priority 1999, published 2003).

As a reminder, the melting point is the temperature, or range, at which the solid turns liquid. As for `Cc1ccc(/C=C/c2ccc3c(c2)C(SCCC(=O)[O-])c2ccccc2CO3)nc1C(C)C.[Na+]` (stereo not shown), the melting point fell in the range of 137 to 139 °C.
For the molecule `O=C([O-])CCCC1c2ccccc2COc2ccc(/C=C/c3ccc4cc(F)c(F)cc4n3)cc21.[Na+]` (stereo not shown) [Example 51 (c), Sodium 4-[2-[(E)-2-(6,7-difluoro-2-quinolinyl)ethenyl]-6,11-dihydrodibenz[b,e]oxepin-11-yl]butanoate], the Ki in data set [1] is 0.158 nM. In data set [2], the “A2 (dose of Test compound required for shifting two-times the LTD4 dose-reaction curve of control group to higher dose side)” value was found to be 3.6 µg/kg.
Molecule `O=C(O)CCSC1c2cc(/C=C/c3ccc4cc(F)c(Cl)cc4n3)ccc2OCc2c(F)cccc21` (stereo not shown) showed a melting point of 238 to 241 °C.
As for `O=C([O-])CC1(CSC2c3ccccc3COc3ccc(/C=C/c4ccc5c(n4)CCCC5)cc32)CC1.[Na+]` (stereo not shown), the melting point was 142 to 145 °C.
Still for that read-out and setting: next, `CS(=O)(=O)NC(=O)CCSC1c2ccccc2COc2ccc(/C=C/c3ccc4cc(F)c(F)cc4n3)cc21.[Na]` (stereo not shown): 187 to 192 °C.
As to `O=C(O)CC1(CSC2c3cc(/C=C/c4ccc5cc(F)c(Cl)cc5n4)ccc3OCc3c(F)cccc32)CC1` (stereo not shown), the melting point lay within 237 to 239 °C.
`C[C@@H](CSC1c2ccccc2COc2ccc(/C=C/c3ccc4c(n3)CCCC4)cc21)C(=O)[O-].[Na+]` (stereo partly drawn) [Example 26, Sodium 3-{[2-[(E)-2-(5,6,7,8-tetrahydro-2-quinolinyl)ethenyl]-6,11-dihydrodibenz[b,e]oxepin-11-yl]thio}-2-(R)-methylpropionate] showed a melting point of 168 to 173 °C. Also, the Ki in data set [1] was 0.316 nM.
For `O=C([O-])CC1(CSC2c3ccccc3COc3ccc(/C=C/c4ccc5c(F)cccc5n4)cc32)CC1.[Na+]` (stereo not shown), the melting point fell in the range of 142 to 144 °C.
With `N#Cc1cccc2c1COc1ccc(/C=C/c3ccc4cc(F)c(F)cc4n3)cc1C2SCCC(=O)O` (stereo not shown), the melting point is 261 to 264 °C (dec.).
The same measure, in the same setting: to `O=C(O)CCSC1c2ccccc2COc2ccc(/C=C/c3ccc4c(n3)CCCC4)cc21` (stereo not shown) belongs 150 to 153 °C.
The same measure, in the same setting: to `O=C(O)CC1(CSC2c3ccccc3COc3ccc(/C=C/c4ccc5ccc(Cl)cc5n4)cc32)CC1` (stereo not shown) belongs 204 to 206 °C; to `O=C(O)CCSC1c2ccccc2COc2ccc(/C=C/c3ccc4ccc(Cl)cc4n3)cc21` (stereo not shown), 195 to 198 °C.
`CCC(CSC1c2ccccc2COc2ccc(/C=C/c3ccc4cc(F)c(F)cc4n3)cc21)C(=O)[O-].[Na+]` (stereo not shown) [Example 45, Sodium 3-{[2-[(E)-2-(6,7-difluoro-2-quinolinyl)ethenyl]-6,11-dihydrodibenz[b,e]oxepin-11-yl]thio}-2-ethylpropionate]: the melting point lay in the range of 209 to 218 °C. For the same molecule, in data set [1], the Ki is 0.158 nM.
As to `O=C([O-])CC1(CSC2c3ccccc3COc3ccc(/C=C/c4nc5cc(F)ccc5s4)cc32)CC1.[Na+]` (stereo not shown), the melting point lay within 155 to 157 °C.
On to `O=C([O-])c1ccc(SC2c3ccccc3COc3ccc(/C=C/c4ccc5cc(F)c(F)cc5n4)cc32)cc1.[Na+]` (stereo not shown) [Example 10 (b), Sodium 4-{[2-[(E)-2-(6,7-difluoro-2-quinolinyl)ethenyl]-6,11-dihydrodibenz[b,e]oxepin-11-yl]thio}benzoate], for which the melting point was 285 to 287 °C (dec.).
The molecule `O=C([O-])CCSC1c2ccccc2COc2ccc(/C=C/c3cc(Cl)c4ccccc4n3)cc21.[Na+]` (stereo not shown) gave a melting point of 140 to 142 °C.
On to `COC(=O)c1ccc2c(c1)COc1ccc(/C=C/c3ccc4c(n3)CCCC4)cc1C2SCCC(=O)O` (stereo not shown), for which the melting point fell in the range of 121 to 123 °C.
With “Sodium [2-[(E)-2-(6,7-difluoro-2-quinolinyl)ethenyl]-6,11-dihydrodibenz[b,e]oxepin-11-yl]thioacetate [Example 4]”, the pKi value in data set [1] is listed as 9.8. For the same molecule, the “A2 (dose of Test compound required for shifting two-times the LTD4 dose-reaction curve of control group to higher dose side)” value in data set [2] came to 3.7 µg/kg.
As for `O=C([O-])CCSC1c2ccccc2COc2ccc(/C=C/c3nc4cc(F)ccc4o3)cc21.[Na+]` (stereo not shown), the melting point lay in the range of 247 to 250 °C.
Same read-out and setting: to `CC(C)(CC(=O)[O-])SC1c2ccccc2COc2ccc(/C=C/c3ccc4c(n3)CCCC4)cc21.[Na+]` (stereo not shown) [Example 27, Sodium 3-{[2-[(E)-2-(5,6,7,8-tetrahydro-2-quinolinyl)ethenyl]-6,11-dihydrodibenz[b,e]oxepin-11-yl]thio}-3-methylbutanoate] belongs 168 to 175 °C.
On the same count and under the same terms, to `O=C([O-])CCSC1c2ccccc2COc2ccc(/C=C/c3ccc4ccc(F)cc4n3)cc21.[Na+]` (stereo not shown) belongs 160 to 163 °C; to `O=C(CSC1c2ccccc2COc2ccc(/C=C/c3ccc4cc(F)c(F)cc4n3)cc21)NS(=O)(=O)C(F)(F)F.[Na]` (stereo not shown), 182 to 186 °C; to `O=S(=O)([O-])CCSC1c2ccccc2COc2ccc(/C=C/c3ccc4cc(F)c(F)cc4n3)cc21.[Na+]` (stereo not shown), 246 to 254 °C.
The same measure, in the same setting: to `O=C([O-])CCSC1c2ccccc2CSc2ccc(/C=C/c3ccc4cc(F)c(F)cc4n3)cc21.[Na+]` (stereo not shown) belongs 144 to 148 °C; to `O=C([O-])CC1(CSC2c3ccccc3COc3ccc(/C=C/c4ccc5c(F)cc(F)cc5n4)cc32)CC1.[Na+]` (stereo not shown), 149 to 152 °C; to `O=C([O-])CCSC1c2ccc(F)cc2COc2ccc(/C=C/c3ccc4cc(F)c(F)cc4n3)cc21.[Na+]` (stereo not shown), 243 to 250 °C.
Molecule `O=C([O-])CC1(CSC2c3ccccc3COc3ccc(/C=C/c4ccc5ccc(F)cc5n4)cc32)CC1.[Na+]` (stereo not shown) displayed a melting point of 149 to 152 °C.
For `O=C([O-])c1ccccc1SC1c2ccccc2COc2ccc(/C=C/c3ccc4cc(F)c(F)cc4n3)cc21.[Na+]` (stereo not shown) [Example 8 (b), Sodium 2-{[2-[(E)-2-(6,7-difluoro-2-quinolinyl)ethenyl]-6,11-dihydrodibenz[b,e]oxepin-11-yl]thio}benzoate], the melting point fell in the range of 183 to 186 °C.
Same read-out and setting: next, `C[C@H](CSC1c2ccccc2CCc2ccc(/C=C/c3ccc4cc(F)c(F)cc4n3)cc21)C(=O)[O-].[Na+]` (stereo partly shown): 211 to 220 °C; `O=C(O)CCSC1c2ccccc2COc2ccc(/C=C/c3ccc4cc(F)c(F)cc4n3)cc21` (stereo not shown): 213 to 216 °C.
Still for that read-out and setting: to `O=C([O-])c1cccc(SC2c3ccccc3COc3ccc(/C=C/c4ccc5cc(F)c(F)cc5n4)cc32)c1.[Na+]` (stereo not shown) [Example 9 (b), Sodium 3-{[2-[(E)-2-(6,7-difluoro-2-quinolinyl)ethenyl]-6,11-dihydrodibenz[b,e]oxepin-11-yl]thio}benzoate] belongs 184 to 188 °C; to `O=C([O-])CCSC1c2ccccc2COc2ccc(/C=C/c3nc4cc(F)ccc4s3)cc21.[Na+]` (stereo not shown), > 300 °C; to `O=C([O-])CCSC1c2ccccc2COc2ccc(/C=C/c3ccc4c(F)cccc4n3)cc21.[Na+]` (stereo not shown), 150 to 152 °C.
